In patent US20180042929A1, “USE OF SUBSTITUTED 2,3-DIHYDROIMIDAZO[1,2-C]QUINAZOLINES” (Bayer Pharma Aktiengesellschaft, priority 2015, published 2018):

Key:
[1] = system: HEC-1B xenograft tumor model; assay type: in vivo; conditions: 10 mg/kg Q14D i.p.
Procedure: The in vivo efficacy was evaluated in tumor xenograft models in nude mice with established human tumor cell lines at the MTD and sub-MTD dosages. Tumor cells were cultivated according to ATCC protocols in recommended media contained 10% FCS. Cells were harvested for transplantation in a subconfluent (70%) state. The volume of implantation was 100 μl for mice. When the tumors were approximately in size of 25-50 mm^2, the animals were randomized to treatment and control groups and treatment was started. Treatment of each animal was based on individual body weight. The optimal formulation, application route and schedule were used for each compound (see table 2). Oral administration (p.o.) was carried out via a gastric tube. The oral application volumes were 10 ml/kg and the intravenous application volumes were 10 ml/kg. Tumor area (product of the longest diameter and its perpendicular) using a calliper. The animal body weight was monitored as a measure for treatment-related toxicity. Measurement of tumor area and body weight was performed 2-3 times weekly. […] Treatment responses were evaluated by means of the clinically-used RECIST criteria (complete response, partial response, stable disease and progressive disease) and response rates were calculated accordingly (RR=number of animals with complete and partial response).

[2] = system: MFE-280 xenograft tumor model; experiment: In vivo efficacy in MFE-280 xenograft tumor model; parameters: species or system nude mice; conditions: doxorubicin group
Procedure: The in vivo efficacy was evaluated in tumor xenograft models in nude mice with established human tumor cell lines at the MTD and sub-MTD dosages. Tumor cells were cultivated according to ATCC protocols in recommended media contained 10% FCS. Cells were harvested for transplantation in a subconfluent (70%) state. The volume of implantation was 100 μl for mice. When the tumors were approximately in size of 25-50 mm^2, the animals were randomized to treatment and control groups and treatment was started. Treatment of each animal was based on individual body weight. The optimal formulation, application route and schedule were used for each compound (see table 2). Oral administration (p.o.) was carried out via a gastric tube. The oral application volumes were 10 ml/kg and the intravenous application volumes were 10 ml/kg. Tumor area (product of the longest diameter and its perpendicular) using a calliper. The animal body weight was monitored as a measure for treatment-related toxicity. Measurement of tumor area and body weight was performed 2-3 times weekly. T/C ratios (Treatment/Control) were calculated with final tumor areas. Treatment responses were evaluated by means of the clinically-used RECIST criteria (complete response, partial response, stable disease and progressive disease) and response rates were calculated accordingly (RR=number of animals with complete and partial response).

[3] = dose not printed (i.p. Q14D per Table 2)

COc1cccc2c1C(=O)c1c(O)c3c(c(O)c1C2=O)C[C@@](O)(C(=O)CO)C[C@@H]3O[C@H]1C[C@H](N)[C@H](O)[C@H](C)O1 [Doxorubicin]
PD (progressive disease, number of tumors) [1]: 6
Response rate [1]: 0%
T/C area (Treatment/Control ratio, mean tumor areas) ([1]; study end): 0.56
T/C weight (Treatment/Control ratio, final tumor weights) ([1]; study end): 0.48
CR (%) ([2]; dose not given): 0%
PD (%) ([2]; dose not given): 37.5%
PR (%) ([2]; dose not given): 12.5%
RR (%) ([2]; dose not given): 12.5%
T/C (tumor area) [2, 3]: 0.51
T/C (tumor weight) [2, 3]: 0.39
